In ChEMBL document CHEMBL1795209, “1-Chloro-2-formyl indenes and tetralenes as antitubercular agents” (Bioorg Med Chem Lett, 2011):
≈ marks a conversion by molar mass, not a printed value. Calls of active or inactive are those of the source. The rule behind the calls is not given here.

Legend:
[1] = tested on: Mycobacterium tuberculosis; assay: Antitubercular activity against Mycobacterium tuberculosis H37Rv by Bactec 460 method; type: functional
[2] = tested on: Mycobacterium tuberculosis; assay: Antitubercular activity against Mycobacterium tuberculosis H37Rv at 500 ug/ml by Bactec 460 method; type: functional, organism-based
Mus musculus [3] = assay: Acute toxicity in Swiss albino mouse assessed as change in creatinine level at 5 to 300 mg/kg, po administered as single dose; type: organism-based; parameters: dose 5-300 mg/kg, route oral; details: in vivo
Mus musculus [4] = assay: Acute toxicity in Swiss albino mouse assessed as change in total RBC at 5 to 300 mg/kg, po administered as single dose; type: organism-based; parameters: dose 5-300 mg/kg, route oral; details: in vivo
Mus musculus [5] = assay: Acute toxicity in Swiss albino mouse assessed as change in SGOT level at 5 to 300 mg/kg, po administered as single dose; type: organism-based; parameters: dose 5-300 mg/kg, route oral; details: in vivo
Mus musculus [6] = assay: Acute toxicity in Swiss albino mouse assessed as change in absolute and relative weight of the organs at 5 to 300 mg/kg, po administered as single dose; type: organism-based; parameters: dose 5-300 mg/kg, route oral; details: in vivo
Mus musculus [7] = assay: Acute toxicity in Swiss albino mouse assessed as morbidity at 5 to 300 mg/kg, po administered as single dose; type: organism-based; parameters: dose 5-300 mg/kg, route oral; details: in vivo
Mus musculus [8] = assay: Acute toxicity in Swiss albino mouse assessed as change in serum total cholesterol level at 5 to 300 mg/kg, po administered as single dose; type: organism-based; parameters: dose 5-300 mg/kg, route oral; details: in vivo
Mus musculus [9] = assay: Acute toxicity in Swiss albino mouse assessed as mortality at 5 to 300 mg/kg, po administered as single dose; type: organism-based; parameters: dose 5-300 mg/kg, route oral; details: in vivo
Mus musculus [10] = assay: Acute toxicity in Swiss albino mouse assessed as change in SGPT level at 5 to 300 mg/kg, po administered as single dose; type: organism-based; parameters: dose 5-300 mg/kg, route oral; details: in vivo
Mus musculus [11] = assay: Acute toxicity in Swiss albino mouse assessed as change in total WBC count at 5 to 300 mg/kg, po administered as single dose; type: organism-based; parameters: dose 5-300 mg/kg, route oral; details: in vivo
Mus musculus [12] = assay: Acute toxicity in Swiss albino mouse assessed as change in differential leukocyte count at 5 to 300 mg/kg, po administered as single dose; type: organism-based; parameters: dose 5-300 mg/kg, route oral; details: in vivo
Mus musculus [13] = assay: Acute toxicity in Swiss albino mouse assessed as change in hemoglobin level at 5 to 300 mg/kg, po administered as single dose; type: organism-based; parameters: dose 5-300 mg/kg, route oral; details: in vivo
[14] = Acute toxicity in po dosed Swiss albino mouse administered as single dose; type: organism-based; details: in vivo
Mus musculus [15] = assay: Acute toxicity in Swiss albino mouse assessed as observational changes at 5 to 300 mg/kg, po administered as single dose; type: organism-based; parameters: dose 5-300 mg/kg, route oral; details: in vivo
Mus musculus [16] = assay: Acute toxicity in Swiss albino mouse assessed as change in triglyceride level at 5 to 300 mg/kg, po administered as single dose; type: organism-based; parameters: dose 5-300 mg/kg, route oral; details: in vivo

Row | Compound | MIC [1] [µg/mL] | further results
1 | CC1CC(C=O)=C(Cl)c2ccccc21 (configuration not stated) | 125 (≈ 605 µM) | –
2 | COc1ccc2c(c1)CCCC2O (configuration not stated) | – | Activity [2]: inactive
3 | CO[C@H]1/C=C/O[C@@]2(C)Oc3c(C)c(O)c4c(O)c(c(/C=N/N5CCN(C)CC5)c(O)c4c3C2=O)NC(=O)/C(C)=C\C=C\[C@H](C)[C@H](O)[C@@H](C)[C@@H](O)[C@@H](C)[C@H](OC(C)=O)[C@@H]1C [RIFAMPIN] | 2 (≈ 2.43 µM) | –
4 | CO[C@H]1CCC(=O)c2cccc(O)c21 | 6.25 (≈ 32.5 µM) | –
5 | Cc1cccc2c1C(Cl)=C(C=O)C2 | 125 (≈ 649 µM) | –
6 | O=CC1=C(Cl)c2ccccc2CC1 | 60 (≈ 311 µM) | –
7 | O=CC1=C(Cl)c2ccccc2C1c1ccccc1 (configuration not stated) | 250 (≈ 981 µM) | –
8 | COc1cc(C2C(C=O)=C(Cl)c3cc(OC)c(OC)c(OC)c32)cc(OC)c1OC (configuration not stated) | – | Activity [2]: inactive
9 | Cc1cc(O)c2c(c1)[C@H](O)CCC2=O [SHINANOLONE] | 100 (≈ 520 µM) | –
10 | COc1ccc2c(c1)CCC/C2=N\O | 500 (≈ 2610 µM) | –
11 | O=Cc1cc2ccccc2c(Cl)c1C=O | 500 (≈ 2290 µM) | –
12 | COc1ccc2c(c1)CCC(OC=O)=C2Cl | 30 (≈ 126 µM) | Activity (Mus musculus [3]): Non-toxic; Activity (Mus musculus [4]): Non-toxic; Activity (Mus musculus [5]): Non-toxic; Activity (Mus musculus [6]): Non-toxic; Activity (Mus musculus [7]): Non-toxic; Activity (Mus musculus [8]): Non-toxic; Activity (Mus musculus [9]): Non-toxic; Activity (Mus musculus [10]): Non-toxic; Activity (Mus musculus [11]): Non-toxic; Activity (Mus musculus [12]): Non-toxic; Activity (Mus musculus [13]): Non-toxic; MTD [14]: 300 mg/kg; Activity (Mus musculus [15]): Non-toxic; Activity (Mus musculus [16]): Non-toxic
13 | COc1ccc2c(c1)CC(C=O)=C2Cl | 125 (≈ 599 µM) | –
14 | O=CC1=C(Cl)c2ccc(Cl)cc2C1 | 125 (≈ 587 µM) | –
15 | COc1ccc2c(c1)CCCC2 | 125 (≈ 771 µM) | –
16 | O=CC1=C(Cl)c2cc3c(cc2C1)OCO3 | 125 (≈ 561 µM) | –
17 | Cc1ccc2c(c1)CC(C=O)=C2Cl | 250 (≈ 1300 µM) | –
18 | COc1ccc2c(c1)CCC(CO)=C2Cl | 500 (≈ 2230 µM) | –
19 | COc1ccc2c(c1)CCCC2OC(C)=O (configuration not stated) | 30 (≈ 136 µM) | –
20 | COc1ccc2c(c1)C(Cl)=C(C=O)C1C2CC[C@@]2(C)C1CC[C@@H]2OC(C)=O (some centres not stated) | – | Activity [2]: inactive
21 | COc1ccc2c(c1)CCC(C=O)=C2Cl | 125 (≈ 561 µM) | –
22 | CN[C@@H]1[C@H](O[C@H]2[C@H](O[C@H]3[C@H](O)[C@@H](O)[C@H](N=C(N)N)[C@@H](O)[C@@H]3N=C(N)N)O[C@@H](C)[C@]2(O)C=O)O[C@@H](CO)[C@H](O)[C@H]1O [STREPTOMYCIN] | 2 (≈ 3.44 µM) | –
23 | COc1cc2c(cc1C=O)C=CCC2 | 500 (≈ 2660 µM) | –
